From PubChem BioAssay (NCI)
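GI50 = concentration required for 50% inhibition of growth. The concentration for full growth arrest is given as TGI.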

Tests used:
Assay in all cases: NCI-60 cell line screen, 384-well format
KM12 colon = test system: KM12 colon
MDA-MB-231 breast = test system: MDA-MB-231 breast
SF-295 CNS = test system: SF-295 CNS
NCI-H460 NSCLC = test system: NCI-H460 NSCLC
NCI-H23 lung = test system: NCI-H23 lung
MOLT-4 leukemia = test system: MOLT-4 leukemia
RPMI-8226 leukemia = test system: RPMI-8226 leukemia
MDA-MB-468 breast = test system: MDA-MB-468 breast
SF-539 CNS = test system: SF-539 CNS
NCI-H522 lung = test system: NCI-H522 lung
SK-MEL-2 melanoma = test system: SK-MEL-2 melanoma
786-0 renal = test system: 786-0 renal
M14 melanoma = test system: M14 melanoma
HT29 colon = test system: HT29 colon
UACC-62 melanoma = test system: UACC-62 melanoma
HCT-15 colon = test system: HCT-15 colon
A549 NSCLC = test system: A549 NSCLC
MCF7 breast = test system: MCF7 breast
SN12C renal = test system: SN12C renal
HCC-2998 colon = test system: HCC-2998 colon
SR leukemia = test system: SR leukemia
HS 578T breast = test system: HS 578T breast
SK-MEL-5 melanoma = test system: SK-MEL-5 melanoma
SK-OV-3 ovarian = test system: SK-OV-3 ovarian
T-47D breast = test system: T-47D breast
EKVX NSCLC = test system: EKVX NSCLC
NCI-H226 lung = test system: NCI-H226 lung
OVCAR-5 ovarian = test system: OVCAR-5 ovarian
MDA-MB-435 melanoma = test system: MDA-MB-435 melanoma
UO-31 renal = test system: UO-31 renal
ACHN renal = test system: ACHN renal
SNB-19 CNS = test system: SNB-19 CNS
SW-620 colon = test system: SW-620 colon
A498 renal = test system: A498 renal
TK-10 renal = test system: TK-10 renal
COLO 205 colon = test system: COLO 205 colon
DU-145 prostate = test system: DU-145 prostate
HOP-62 NSCLC = test system: HOP-62 NSCLC
NCI/ADR-RES ovarian = test system: NCI/ADR-RES ovarian
BT-549 breast = test system: BT-549 breast
K-562 leukemia = test system: K-562 leukemia
PC-3 prostate = test system: PC-3 prostate
CAKI-1 renal = test system: CAKI-1 renal
NCI-H322M lung = test system: NCI-H322M lung
SNB-75 CNS = test system: SNB-75 CNS
UACC-257 melanoma = test system: UACC-257 melanoma
RXF 393 renal = test system: RXF 393 renal

COc1ccc([C@@H](O)c2cc(-c3ncnc4cc(N5CCOCC5)ccc34)c(F)cc2Cl)nn1
GI50 (KM12 colon): 5.81 µM
TGI (KM12 colon): 19 µM
GI50 (MDA-MB-231 breast): 3.52 µM
TGI (MDA-MB-231 breast): 37.4 µM
GI50 (SF-295 CNS): 1.87 µM
TGI (SF-295 CNS): 12.6 µM
GI50 (NCI-H460 NSCLC): 2.19 µM
TGI (NCI-H460 NSCLC): 13.1 µM
GI50 (NCI-H23 lung): 2.49 µM
TGI (NCI-H23 lung): 14.9 µM
GI50 (MOLT-4 leukemia): 0.892 µM
TGI (MOLT-4 leukemia): 2.31 µM
GI50 (RPMI-8226 leukemia): 1.09 µM
TGI (RPMI-8226 leukemia): 2.86 µM
GI50 (MDA-MB-468 breast): 1.03 µM
TGI (MDA-MB-468 breast): 4.31 µM
GI50 (SF-539 CNS): 3.38 µM
TGI (SF-539 CNS): 28.4 µM
GI50 (NCI-H522 lung): 1.29 µM
TGI (NCI-H522 lung): 8.26 µM
GI50 (SK-MEL-2 melanoma): 16.1 µM
TGI (SK-MEL-2 melanoma): 31.2 µM
GI50 ([…]-0 renal): 2.6 µM
TGI (786-0 renal): 17.8 µM
GI50 (M14 melanoma): 4.23 µM
TGI (M14 melanoma): 16.9 µM
GI50 (HT29 colon): 3.36 µM
TGI (HT29 colon): 16.3 µM
GI50 (UACC-62 melanoma): 1.16 µM
TGI (UACC-62 melanoma): 11.8 µM
GI50 (HCT-15 colon): 3.49 µM
TGI (HCT-15 colon): 15 µM
GI50 (A549 NSCLC): 2.6 µM
TGI (A549 NSCLC): 12.3 µM
GI50 (MCF7 breast): 0.843 µM
TGI (MCF7 breast): 10.4 µM
GI50 (SN12C renal): 1.47 µM
TGI (SN12C renal): 17.1 µM
GI50 (HCC-2998 colon): 3.21 µM
TGI (HCC-2998 colon): 11.4 µM
GI50 (SR leukemia): 6.08 µM
TGI (SR leukemia): 19.5 µM
GI50 (HS 578T breast): 0.864 µM
TGI (HS 578T breast): 3.7 µM
GI50 (SK-MEL-5 melanoma): 1.61 µM
TGI (SK-MEL-5 melanoma): 5.92 µM
GI50 (SK-OV-3 ovarian): 1.57 µM
TGI (SK-OV-3 ovarian): 6.2 µM
GI50 (T-47D breast): 0.531 µM
TGI (T-47D breast): 2.61 µM
GI50 (EKVX NSCLC): 1.54 µM
TGI (EKVX NSCLC): 10.7 µM
GI50 (NCI-H226 lung): 3.64 µM
TGI (NCI-H226 lung): 24.6 µM
GI50 (OVCAR-5 ovarian): 3.47 µM
TGI (OVCAR-5 ovarian): 21 µM
GI50 (MDA-MB-435 melanoma): 5.07 µM
TGI (MDA-MB-435 melanoma): 20.6 µM
GI50 (UO-31 renal): 1.95 µM
TGI (UO-31 renal): 11.6 µM
GI50 (ACHN renal): 2.38 µM
TGI (ACHN renal): 16.5 µM
GI50 (SNB-19 CNS): 7.21 µM
TGI (SNB-19 CNS): 28.3 µM
GI50 (SW-620 colon): 5.21 µM
TGI (SW-620 colon): 18.9 µM
GI50 (A498 renal): 0.372 µM
TGI (A498 renal): 1.99 µM
GI50 (TK-10 renal): 2.79 µM
TGI (TK-10 renal): 14.6 µM
GI50 (COLO 205 colon): 3.52 µM
TGI (COLO 205 colon): 11.1 µM
GI50 (DU-145 prostate): 4.21 µM
TGI (DU-145 prostate): 18.8 µM
GI50 (HOP-62 NSCLC): 4.86 µM
TGI (HOP-62 NSCLC): 26 µM
GI50 (NCI/ADR-RES ovarian): 3.97 µM
TGI (NCI/ADR-RES ovarian): 17.6 µM
GI50 (BT-549 breast): 1.19 µM
TGI (BT-549 breast): 9.64 µM
GI50 (K-562 leukemia): 3.55 µM
TGI (K-562 leukemia): 22 µM
GI50 (PC-3 prostate): 0.889 µM
TGI (PC-3 prostate): 11.1 µM
GI50 (CAKI-1 renal): 1.19 µM
TGI (CAKI-1 renal): 16 µM
GI50 (NCI-H322M lung): 3.88 µM
TGI (NCI-H322M lung): 21 µM
GI50 (SNB-75 CNS): 0.668 µM
TGI (SNB-75 CNS): 3.15 µM
GI50 (UACC-257 melanoma): 3.59 µM
TGI (UACC-257 melanoma): 17.8 µM
GI50 (RXF 393 renal): 0.553 µM
TGI (RXF 393 renal): 3.3 µM
